One compound from patent publication US8956997B2, “Plant conditioner composition and method” (priority 2010, dated 2015) can be followed below.

The subject of one data set is plants. Kind of data set: Plant size, produce and plant damage in indoor and outdoor gardens. It is filed as in vivo. The conditions noted are these: more H202 and tea tree oil combinations added to the mix. As for the experimental part:
This product was tested in the Inventor's garden. At the time the garden was infested with spider mites and thrips. There were cob webs and major plant damage. The option was to destroy the garden. It seemed hopeless. […] Originally the solution was too strong, and it severely damaged the plants and killed every living thing on the plants as well as the plants. After going back and testing each of the ingredients separately (a few weeks at a time over the course of five years) the Inventor concluded how much of each ingredient to use per gallon. After that, the Inventor combined the sugars and started adding each ingredient while testing shelf life and refrigerator life of Dragon Juice 50. […] The concentrate variations have been tested in indoor and outdoor gardens. The results have been fantastic as all of the products produced have been getting outstanding customer approval for quality, and flavor. […] It also helps to keep the plant healthier from the stress of the concentrated oils. The salt (see below) is another last minute ingredient included after studying and talking with a state health inspector. The Inventor realized that the salt breaks down selenium in the water so the plant can use the nutrients and convert the use of sugars more effectively. As the H202 takes away microorganisms, the vitamins, and carbohydrates rebuild a healthy environment for the plants new growth. […]

The next data set deals with thrips. The data set is described as follows: Thrips kill test on isolated thrips and treated plants. The data set is classed as in vivo. An excerpt:
Obvious testing by using a loop and magnifier concluded that the Dragon Juice 50 kills 100% of the spider mites, even after 6 weeks in the refrigerator. […] The Inventor tested more H202 and the tea tree oil combinations.

Regarding `OO` [H202, hydrogen peroxide], the “plant damage (leaves)” value in the data set with plants is on record as “started burning the leaves”. In addition, the effect on thrips entry with thrips is on record as “killed the thrips”.
